According to article doi:10.1101/2023.11.23.568446v1 (bioRxiv, 2023):
Bridge positions count the residues as written; N and C are the ends. Square brackets hold non-standard residues; d marks the D form. Peptide text beside a SMILES is read from it. * marks the point of attachment. X1 = CC[C@H](C)CCCCC(=O)*; Dab = NCC[C@H](N)C(=O)O

Key:
[1] = tested on: A. baumannii ATCC 17978; assay: Checkerboard assay; format: cell-based, Acinetobacter baumannii; conditions: for MIC alone, Antibiotic: A. baumannii ATCC 17978
[2] = tested on: DHA10 (CRAB); assay: Checkerboard assay; format: cell-based, Acinetobacter baumannii; conditions: for MIC in combination, Antibiotic: in combination with AIG-R5
[3] = tested on: A. baumannii isolates; assay: Antibiotic resistance profile of isolates; format: cell-based, Acinetobacter baumannii
[4] = tested on: A. baumannii biofilms; conditions: at 128µM (64×MIC); ref Kim et al., 2018; cited from earlier work

| Molecule | MIC alone, Antibiotic [1] | MIC in combination, Antibiotic ([1]; in combination with AIG-R1) | MIC in combination, Antibiotic ([1]; in combination with AIG-R4) | MIC in combination, Antibiotic ([1]; in combination with AIG-R5) | MIC in combination, Antibiotic [2] | Antibiotic resistance profile ([3]; strain 17978) | Antibiotic resistance profile ([3]; strain Ci 3) | Antibiotic resistance profile ([3]; strain Ci 6) | Antibiotic resistance profile ([3]; strain Ci 7) | Antibiotic resistance profile ([3]; strain DHA 8) | Antibiotic resistance profile ([3]; strain DHA 10) | Antibiotic resistance profile ([3]; strain P-1119) | Antibiotic resistance profile ([3]; strain P-1131) | Antibiotic resistance profile ([3]; strain P-1139) | Antibiotic resistance profile ([3]; strain P-1169) | Antibiotic resistance profile ([3]; strain P-1182) | MIC alone, Antibiotic [2] | degraded pre-formed biofilms [4] |
| --- | --- | --- | --- | --- | --- | --- | --- | --- | --- | --- | --- | --- | --- | --- | --- | --- | --- | --- |
| NCC[C@H](O)C(=O)N[C@@H]1C[C@H](N)[C@@H](O[C@H]2O[C@H](CN)[C@@H](O)[C@H](O)[C@H]2O)[C@H](O)[C@H]1O[C@H]1O[C@H](CO)[C@@H](O)[C@H](N)[C@H]1O [Amikacin] | 2 µg/mL | 0.5 µg/mL | 1 µg/mL | 0.5 µg/mL | 256 µg/mL |  |  |  |  |  |  |  |  |  |  |  |  |  |
| CC[C@H](C)CCCCC(=O)N[C@@H](CCN)C(=O)N[C@H](C(=O)N[C@@H](CCN)C(=O)N[C@H]1CCNC(=O)[C@H]([C@@H](C)O)NC(=O)[C@H](CCN)NC(=O)[C@H](CCN)NC(=O)[C@H](CC(C)C)NC(=O)[C@@H](CC(C)C)NC(=O)[C@H](CCN)NC1=O)[C@@H](C)O [Colistin] (X1-[Dab]T[Dab][Dab][Dab][dL]L[Dab][Dab]T; lactam 4-C (inferred); N-terminus assumed) | 1 µg/mL | 0.25 µg/mL | 0.25 µg/mL | 0.5 µg/mL |  | S | R | R | R | R | R | R | R | R | R | R |  |  |
| C[C@@H](O)[C@H]1C(=O)N2C(C(=O)O)=C(SCCN=CN)C[C@H]12 [Imipenem] | 2 µg/mL | 1 µg/mL | 1 µg/mL | 1 µg/mL |  | S | R | R | R | R | R | R | R | R | R | R |  |  |
| NC[C@H]1O[C@H](O[C@H]2[C@H](O)[C@@H](O[C@H]3O[C@H](CO)[C@@H](O)[C@H](N)[C@H]3O)[C@H](N)C[C@@H]2N)[C@H](O)[C@@H](O)[C@@H]1O.O=S(=O)(O)O [Kanamycin sulphate] | 4 µg/mL | 2 µg/mL | 2 µg/mL | 1 µg/mL |  |  |  |  |  |  |  |  |  |  |  |  |  |  |
| C[C@@H](O)[C@H]1C(=O)N2C(C(=O)O)=C(S[C@@H]3CN[C@H](C(=O)N(C)C)C3)[C@H](C)[C@H]12 [Meropenem] |  |  |  |  |  | S | R | R | R | R | R | R | R | R | R | R |  |  |
| CO[C@H]1/C=C/O[C@@]2(C)Oc3c(C)c(O)c4c(O)c(cc(O)c4c3C2=O)NC(=O)/C(C)=C\C=C\[C@H](C)[C@H](O)[C@@H](C)[C@@H](O)[C@@H](C)[C@H](OC(C)=O)[C@@H]1C [Rifamycin] | 4 µg/mL | 2 µg/mL | 2 µg/mL | 2 µg/mL |  |  |  |  |  |  |  |  |  |  |  |  |  |  |
| NC[C@H]1O[C@H](O[C@H]2[C@H](O)[C@@H](O[C@H]3O[C@H](CO)[C@@H](O)[C@H](N)[C@H]3O)[C@H](N)C[C@@H]2N)[C@H](N)C[C@@H]1O [Tobramycin] | 2 µg/mL | 1 µg/mL | 1 µg/mL | 0.5 µg/mL | 128 µg/mL |  |  |  |  |  |  |  |  |  |  |  | 512 µg/mL |  |
| magainin 2 |  |  |  |  |  |  |  |  |  |  |  |  |  |  |  |  |  | 33.3% |
